Each structure is given as a SMILES string.

The experiment has as its target T1, KRAS G12C (GMPPNP-loaded) and cRAF (Ras-binding domain) interaction (Homo sapiens, UniProt P01116, C118S/C51S/C80L/G12C).
T1 construct: truncated version comprising amino acids 1-169
Nature of the experiment: AlphaScreen inhibition of KRAS G12C and cRAF binding. It counts as biochemical. The note with it: KRAS G12C preloaded with GTP analogue GMPPNP, 2 hours preincubation. How it is done: The AlphaScreen technology was used to determine IC50s for compound inhibition of KRAS G12C (present as the Cys-light (C51S, C80L and C118S), truncated version comprising amino acids 1-169) and cRAF interaction. Compounds were diluted in 100% DMSO and each compound concentration was spotted at 200 nl/well onto low volume, white 384 well plates. The KRAS G12C contained a biotin-AviTag and the cRaf, as Ras-binding domain (amino acids 50-131, RBD), was GST-tagged. KRAS G12C was preloaded with the GTP analogue Guanosine 5′-[β,γ-imido]triphosphate (GMPPNP). The KRAS G12C was diluted in 25 mM Hepes, pH 7.4, 150 mM NaCl, 5 mM MgCl2, 0.01% TritonX-100 and 10 μM GMPPNP and added at 10 ul/well to compound-spotted plates resulting in a DMSO concentration of 2%. Plates were incubated for 2 hours. A mixture of RBD and the AlphaScreen streptavidin donor and glutathione acceptor beads diluted in 25 mM Hepes, pH 7.4, 150 mM NaCl, 5 mM MgCl2, 0.01% TritonX-100 and 2% DMSO was then added at 10 ul/well and incubated for 60-90 minutes before the samples were read for emission at 570 nm after excitation of the donor beads at 680 nm. All incubations were performed at room temperature. The final top compound concentration was 50 μM with 1:3 titrations for 10-point dose response curves. Final assay conditions were 0.5 nM KRAS G12C, 0.75 nM RBD and 5 ug/ml each of AlphaScreen donor and acceptor beads. IC50s were determined using nonlinear regression fit of [inhibitor] vs. response (4 parameters).
A counter assay was also set up to rule out inhibitors of the AlphaScreen technology itself. Compound plates were incubated for 2 hours as above with buffer only. The AlphaScreen beads were added as above except biotin-AviTag-GST was substituted for the RBD. Samples were read and analyzed as above.
Background: Alpha assays give light when donor and acceptor beads are brought close together.

T1 sequence (P01116 1-169 isoform P01116-2 G12C/C51S/C80L/C118S): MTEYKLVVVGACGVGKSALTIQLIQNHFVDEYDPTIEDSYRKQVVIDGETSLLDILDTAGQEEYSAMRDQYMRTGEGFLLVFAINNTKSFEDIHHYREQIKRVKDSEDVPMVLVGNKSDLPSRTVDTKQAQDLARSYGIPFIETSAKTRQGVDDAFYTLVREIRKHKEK

Regarding `C[C@@H](/C=C/C(=O)N1CCN(c2nc(OC[C@@]34CCCN3C[C@H](F)C4)nc3c(F)c(-c4cccc(Cl)c4C4CC4)ncc23)C[C@@H]1CC#N)N(C)C` [Compound 45, 2-((S)-4-(7-(3-chloro-2-cyclopropylphenyl)-8-fluoro-2-(((2R,7aS)-2-fluorotetrahydro-1H-pyrrolizin-7a(5H)-yl)methoxy)pyrido[4,3-d]pyrimidin-4-yl)-1-((S,E)-4-(dimethylamino)pent-2-enoyl)piperazin-2-yl)acetonitrile], the IC50 – broadly, the concentration at which inhibition is half-maximal – lay within 100 to 500 nM.
The compound `CO[C@@H]1CCN([C@H](C)/C=C/C(=O)N2CCN(c3nc(OC[C@@]45CCCN4C[C@H](F)C5)nc4c(F)c(-c5cccc6ccc(F)c(Cl)c56)ncc34)C[C@@H]2CC#N)C1` [Compound 40] gave an IC50 of 100 to 500 nM.
For `C[C@@H](/C=C/C(=O)N1CCN(c2nc(OC[C@@]34CCCN3C[C@H](F)C4)nc3c(F)c(-c4cccc5cccc(Cl)c45)ncc23)C[C@@H]1CC#N)N1CC2CC(C1)O2` [Compound 37] the value was 100 to 500 nM.
`C[C@H](/C=C/C(=O)N1C[C@H](F)[C@@H](N(C)c2nc(OC[C@@]34CCCN3C[C@H](F)C4)nc3c(F)c(-c4cccc5cccc(Cl)c45)ncc23)C1)N(C)C` [Compound 9] came in with an IC50 of 10 to 100 nM.
In turn, `C[C@@H](/C=C/C(=O)N1CCN(c2nc(OC[C@@]34CCCN3C[C@H](F)C4)nc3c(F)c(-c4cccc5cccc(Cl)c45)ncc23)C[C@@H]1CC#N)N1C[C@@H]2C[C@H]1CO2` [Compound 41] gave an IC50 of 10 to 100 nM.
`CC(/C=C/C(=O)N1CCN(c2nc(OC[C@@]34CCCN3C[C@H](F)C4)nc3c(F)c(-c4cccc5cccc(Cl)c45)ncc23)C[C@@H]1CC#N)N1[C@@H]2CC[C@H]1COC2` (stereo partly drawn) [Compound 17] yielded an IC50 below 10 nM.
`C[C@@H](/C=C/C(=O)N1CCN(c2nc(OCC34CCCN3CCC4)nc3c2CCN(c2cccc4cccc(Cl)c24)C3)C[C@@H]1CC#N)N1CCOCC1` [Compound 22] displayed an IC50 of 10 to 100 nM.
With `C[C@@H](/C=C/C(=O)N1CCN(c2nc(OC[C@@]34CCCN3C[C@H](F)C4)nc3c(F)c(-c4cccc5cccc(Cl)c45)ncc23)C[C@@H]1CC#N)N1[C@@H]2CC[C@H]1COC2` [Compound 31, 2-((S)-1-((S,E)-4-((1R,5S)-3-oxa-8-azabicyclo[3.2.1]octan-8-yl)pent-2-enoyl)-4-(7-(8-chloronaphthalen-1-yl)-8-fluoro-2-(((2R,7aS)-2-fluorotetrahydro-1H-pyrrolizin-7a(5H)-yl)methoxy)pyrido[4,3-d]pyrimidin-4-yl)piperazin-2-yl)acetonitrile], the IC50 lay in the range of 10 to 100 nM.
For `C[C@H](/C=C/C(=O)N1CCN(c2nc(OC[C@@]34CCCN3C[C@H](F)C4)nc3c(F)c(-c4cccc5cccc(Cl)c45)ncc23)C[C@@H]1CC#N)N1CCOCC1` [Compound 23] the value was 10 to 100 nM; for `CC(/C=C/C(=O)N1CCN(c2nc(OC[C@@]34CCCN3C[C@H](F)C4)nc3c(F)c(-c4cccc5cccc(Cl)c45)ncc23)C[C@@H]1CC#N)N1C2COCC1C2` (stereo partly drawn) [Compound 27], 10 to 100 nM; for `C[C@H](/C=C/C(=O)N1CCN(c2nc(OC[C@@]34CCCN3C[C@H](F)C4)nc3c(F)c(-c4cccc5cccc(Cl)c45)ncc23)C[C@@H]1CC#N)N1C[C@H]2C[C@@H]1CO2` [Compound 25], 10 to 100 nM.
On to `CC(/C=C/C(=O)N1CCN(c2nc(OC[C@@]34CCCN3C[C@H](F)C4)nc3c(F)c(-c4cccc5cccc(Cl)c45)ncc23)C[C@@H]1CC#N)N1CC[C@@H](F)C1` (stereo partly drawn) [Compound 29, 2-((2S)-4-(7-(8-chloronaphthalen-1-yl)-8-fluoro-2-(((2R,7aS)-2-fluorotetrahydro-1H-pyrrolizin-7a(5H)-yl)methoxy)pyrido[4,3-d]pyrimidin-4-yl)-1-((E)-4-((R)-3-fluoropyrrolidin-1-yl)pent-2-enoyl)piperazin-2-yl)acetonitrile], for which the IC50 was below 10 nM.

The values are drawn from US20260274866A1, “PYRIDO[4,3-D]PYRIMIDINE DERIVATIVES AS MUTANT KRAS G12C INHIBITORS FOR THE TREATMENT OF CANCER” (Frontier Medicines Corporation, priority 2023, published 2026).
